Measurements as given in ChEMBL document CHEMBL5325409, “Exploiting HOPNO-dicopper center interaction to development of inhibitors for human tyrosinase” (Eur J Med Chem, 2023).

Assays:
Tyrosinase [1] = target: T1, Tyrosinase (Homo sapiens, UniProt P14679); format: subcellular, MNT-1, Lysates
T1 sequence (P14679 whole entry): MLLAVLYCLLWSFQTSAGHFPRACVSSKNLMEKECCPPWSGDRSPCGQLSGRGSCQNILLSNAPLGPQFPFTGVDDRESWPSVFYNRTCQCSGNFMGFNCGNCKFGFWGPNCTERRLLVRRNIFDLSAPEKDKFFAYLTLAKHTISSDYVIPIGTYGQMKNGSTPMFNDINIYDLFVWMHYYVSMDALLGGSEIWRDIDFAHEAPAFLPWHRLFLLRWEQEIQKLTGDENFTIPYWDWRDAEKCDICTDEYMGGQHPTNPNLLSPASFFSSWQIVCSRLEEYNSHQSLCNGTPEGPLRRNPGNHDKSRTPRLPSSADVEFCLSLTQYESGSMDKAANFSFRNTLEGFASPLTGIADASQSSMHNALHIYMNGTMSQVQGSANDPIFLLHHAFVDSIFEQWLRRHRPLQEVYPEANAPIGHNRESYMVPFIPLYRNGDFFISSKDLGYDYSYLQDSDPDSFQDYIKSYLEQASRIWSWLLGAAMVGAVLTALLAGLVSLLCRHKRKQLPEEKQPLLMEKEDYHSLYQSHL

Tyrosinase [2] = target: T1, Tyrosinase; format: cell-based, MNT-1
Description: Inhibition of tyrosinase in human MNT-1 cells assessed as inhibition of melanin production measured after 96 hrs

Tyrosinase [3] = target: T1, Tyrosinase
Description: Competitive inhibition of human recombinant tyrosinase expressed in Sf9 cells using L-DOPA as substrate by Michelis-Menten based analysis

Tyrosinase [4] = target: T2, Tyrosinase (Streptomyces antibioticus, UniProt P07524)
T2 sequence (P07524 whole entry): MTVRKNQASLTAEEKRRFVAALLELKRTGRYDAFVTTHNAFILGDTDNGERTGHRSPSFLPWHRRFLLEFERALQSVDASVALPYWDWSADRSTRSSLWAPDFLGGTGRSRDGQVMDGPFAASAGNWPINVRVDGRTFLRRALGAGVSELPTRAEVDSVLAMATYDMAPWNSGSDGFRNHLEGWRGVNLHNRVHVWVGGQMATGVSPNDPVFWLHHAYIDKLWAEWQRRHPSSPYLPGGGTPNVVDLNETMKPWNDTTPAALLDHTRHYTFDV
Description: Competitive inhibition of Streptomyces antibioticus tyrosinase using L-DOPA as substrate by Michelis-Menten based analysis

Mushroom tyrosinase = Mushroom tyrosinase (Agaricus bisporus, UniProt O42713+Q00024+C7FF04+C7FF05)
Description: Competitive inhibition of Agaricus bisporus tyrosinase using L-DOPA as substrate by Michelis-Menten based analysis

Tyrosinase [5] = target: T3, Tyrosinase (Mus musculus, UniProt P11344)
T3 sequence (P11344 whole entry): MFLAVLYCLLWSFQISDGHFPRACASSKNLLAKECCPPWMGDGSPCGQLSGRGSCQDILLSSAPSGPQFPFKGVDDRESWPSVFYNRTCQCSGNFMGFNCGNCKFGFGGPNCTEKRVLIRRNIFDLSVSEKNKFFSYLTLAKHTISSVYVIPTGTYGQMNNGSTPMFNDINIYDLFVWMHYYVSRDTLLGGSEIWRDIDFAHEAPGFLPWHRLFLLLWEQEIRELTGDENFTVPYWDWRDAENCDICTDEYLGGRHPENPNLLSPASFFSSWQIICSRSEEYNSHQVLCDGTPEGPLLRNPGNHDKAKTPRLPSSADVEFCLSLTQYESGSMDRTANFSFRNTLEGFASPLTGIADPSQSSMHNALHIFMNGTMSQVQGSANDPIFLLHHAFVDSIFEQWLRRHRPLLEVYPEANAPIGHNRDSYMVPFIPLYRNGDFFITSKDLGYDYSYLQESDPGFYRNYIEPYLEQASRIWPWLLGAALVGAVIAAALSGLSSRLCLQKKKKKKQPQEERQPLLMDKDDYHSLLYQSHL
Description: Inhibition of tyrosinase in mouse B16-F10 cells assessed as inhibition of melanin production measured after 72 hrs

Row | Compound | IC50 (Tyrosinase [1]) [µM] | IC50 (Tyrosinase [2]) [µM] | Ki (Tyrosinase [3]) [µM] | Ki (Tyrosinase [4]) [µM] | Ki (Mushroom tyrosinase) [µM] | IC50 (Tyrosinase [5]) [µM]
1 | Cl.N[C@@H](Cc1ccc(=O)n(O)c1)C(=O)O | 73.6 | > 400 | 8 | 39 | 12.5 | –
2 | Cl.N[C@H](Cc1ccc(=O)n(O)c1)C(=O)O | 277 | > 400 | 76 | 16 | 12.8 | –
3 | O=c1ccc(CO)cn1O | – | – | 7.5 | 4.1 | 1.2 | 61.2
4 | Cl.NC(Cc1ccc(=O)n(O)c1)C(=O)O (racemic) | 90 | > 400 | 6 | 42 | 1.2 | 10
